In patent publication US20220387317A1, “METHODS AND COMPOSITIONS RELATING TO SELECTIVE INTRACELLULAR DELIVERY OF CD38 INHIBITORS” (Ohio State Innovation Foundation, priority 2019, published 2022):
“Also recorded” adds a separate entry of the source.

Key:
Sprague Dawley rats = assay: Rat liver hilar clamp model of IRI (segmental 70% ischemia); format: in vivo
Description: In Vitro: Primary liver cells subjected to H2O2-induced oxidative stress injury. In Vivo: Liver IRI induced in Sprague Dawley rats using a segmental (70% ischemia) hilar clamp model. Markers of liver injury including plasma ALT and AST, tissue MDA, ATP, and GSH, and histology assessed. • b) Results Hypoxic HSCs had increased CD38 expression (FIG. 11) and CD38 activity measured by fluorometric assay (FIG. 12). CD38 expression, activity, and hepatocellular injury increased with duration of ischemia in a rat hilar clamp model of IRI: Sprague-Dawley rats underwent a hilar clamp procedure to induce IRI for 30, 60, 90, 120 min of ischemia followed by 6 h reperfusion. Tissue CD38 expression was measured by Western blot (FIG. 15A), serum ALT by colorimetric assay at 0, 30, 180, 360 min post reperfusion (FIG. 15B), and CD38 activity at all ischemia time points (FIG. 15C). CD38 inhibition increases cell viability, decreases intracellular ROS formation and ET-1 production in HSCs exposed to hypoxia/oxidant stress: Primary rat HSCs were exposed to 3 h hypoxia (0% 02) and 2 h oxidant stress (H2O2). […] Rat model of marginal donor organ recapitulates the inflammatory environment of a discarded “high risk” human donor organ: Control rats have little steatosis by H&E (FIG. 18A) and mild CD38 expression by IHC (FIG. 18B). Rats fed a methionine choline deficient (MCD) diet have severe steatosis by H&E (FIG. 18C) and high CD38 expression co-localizing with GFAP positive HSCs by IHC (FIG. 18D).

CD38 = molecular target: T1, CD38 (Rattus norvegicus, UniProt Q64244); assay: CD38 activity during hepatic IRI; format: in vivo
T1 construct: Liver IRI induced in Sprague Dawley rats using a segmental (70% ischemia) hilar clamp model; from tissue; host or cells: rat liver (Sprague Dawley, hilar clamp ischemia/reperfusion)
T1 sequence (Q64244 1-303): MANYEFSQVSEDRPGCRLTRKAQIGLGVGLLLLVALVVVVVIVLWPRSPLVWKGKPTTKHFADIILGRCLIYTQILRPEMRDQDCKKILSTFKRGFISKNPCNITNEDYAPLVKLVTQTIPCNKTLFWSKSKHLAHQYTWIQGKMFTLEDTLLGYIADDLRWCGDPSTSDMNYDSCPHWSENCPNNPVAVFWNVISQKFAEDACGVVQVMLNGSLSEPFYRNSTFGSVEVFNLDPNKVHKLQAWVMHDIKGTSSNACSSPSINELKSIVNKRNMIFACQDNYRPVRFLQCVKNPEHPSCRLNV
Description: In Vitro: Primary liver cells subjected to H2O2-induced oxidative stress injury. In Vivo: Liver IRI induced in Sprague Dawley rats using a segmental (70% ischemia) hilar clamp model. […] Additionally, CD38 activity correlated with increased ischemic time (FIGS. 15A and 15C). However, Apigenin treatment attenuated liver IRI (FIG. 16). […] Additionally, Apigenin treatment improves tissue MAD, ATP and GSH. Lastly, Apigenin treatment preserves tissue architecture.

O=c1cc(-c2ccc(O)cc2)oc2cc(O)cc(O)c12 [Apigenin]
tissue architecture (Sprague Dawley rats; histology, liver IRI): preserves
liver IRI (injury) (Sprague Dawley rats; intrahepatic delivery, 1 h of ischemia and 6 h of reperfusion, FIG. 16): attenuated; also recorded: protection from injury; also recorded: decreased injury
tissue ATP (Sprague Dawley rats; liver tissue, liver IRI): improves
tissue GSH (Sprague Dawley rats; liver tissue, liver IRI): improves
tissue MDA (malondialdehyde) (Sprague Dawley rats; liver tissue, liver IRI): improves
ALT (Sprague Dawley rats; plasma, liver IRI): improves
AST (Sprague Dawley rats; plasma, liver IRI): improves
CD38 activity during IRI (CD38; FIG. 14): rescued
CD38 activity during IRI (CD38; FIG. 14, listed as Inhibitor): decreases
